pEC50, pIC50: −log10 of the molar value.
Columns and labels:
TNFα = test: cells; format: cell-based, human; conditions: Homo sapiens, Monocyte, LPS-stimulated human monocytes, TNFα content; read-out: EC50 TNF
IRAK4 enzyme = IRAK4 enzyme (Homo sapiens (Human), UniProt Q9NWZ3); test: biochemical; format: biochemical; conditions: IRAK4 enzyme, TR-FRET (HTRF), 500 μM ATP
Chain of IRAK4 enzyme (Q9NWZ3 whole entry): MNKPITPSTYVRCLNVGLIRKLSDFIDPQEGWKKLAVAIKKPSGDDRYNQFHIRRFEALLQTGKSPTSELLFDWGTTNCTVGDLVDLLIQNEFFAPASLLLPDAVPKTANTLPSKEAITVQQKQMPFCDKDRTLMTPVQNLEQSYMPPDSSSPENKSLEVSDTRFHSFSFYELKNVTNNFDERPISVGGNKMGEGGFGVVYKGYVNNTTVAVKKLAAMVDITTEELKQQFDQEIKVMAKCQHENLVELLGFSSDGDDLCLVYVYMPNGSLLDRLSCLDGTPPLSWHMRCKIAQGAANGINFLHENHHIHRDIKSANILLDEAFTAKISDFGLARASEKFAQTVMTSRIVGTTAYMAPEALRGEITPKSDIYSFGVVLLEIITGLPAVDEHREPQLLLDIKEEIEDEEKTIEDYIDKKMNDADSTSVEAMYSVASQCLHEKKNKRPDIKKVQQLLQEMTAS

Row | SMILES | pEC50 (TNFα) | pIC50 (IRAK4 enzyme)
1 | N#CCNC(=O)c1cnc(-c2ccc3cc(C#N)cnn23)cc1NC1CC1 [Example 461, N-(cyanomethyl)-6-(3-cyanopyrrolo[1,2-b]pyridazin-7-yl)-4-(cyclopropylamino) nicotinamide] | 7.24 | > 9.00
2 | CC(C)Nc1cc(-c2ccc3cc(C#N)cnn23)ncc1C(=O)NCC#N [Example 462, N-(cyanomethyl)-6-(3-cyanopyrrolo[1,2-b]pyridazin-7-yl)-4-(isopropylamino) nicotinamide] | 7.17 | > 9.00
3 | CNc1cc(-c2ccc3cc(C#N)cnn23)ncc1C(=O)NCC#N [Example 463, N-(cyanomethyl)-6-(3-cyanopyrrolo[1,2-b]pyridazin-7-yl)-4-(methylamino)nicotinamide] | 6.79 | 8.52
4 | CNC(=O)c1cnc(-c2ccc3cc(C#N)cnn23)cc1N[C@@H]1CCC[C@@H](C(=O)NC)C1 [Example 464, 6-(3-cyanopyrrolo[1,2-b]pyridazin-7-yl)-N-methyl-4-(((1R,3R)-3-(methylcarbamoyl)cyclohexyl)amino) nicotinamide] | 5.96 | 7.64
5 | CNC(=O)c1cnc(-c2ccc3cc(C#N)cnn23)cc1N[C@H]1CC[C@@H](C(=O)NC)C1 [Example 465, 6-(3-cyanopyrrolo[1,2-b]pyridazin-7-yl)-N-methyl-4-(((1S,3R)-3-(methyl-carbamoyl)cyclopentyl)amino)nicotinamide] | 6.39 | 8.10
6 | CNC(=O)c1cnc(-c2ccc3cc(C#N)cnn23)cc1N[C@@H]1CC[C@@H](C(=O)NC)C1 [Example 466, 6-(3-cyanopyrrolo[1,2-b]pyridazin-7-yl)-N-methyl-4-(((1R,3R)-3-(methyl-carbamoyl)cyclopentyl)amino)nicotinamide] | 6.59 | 8.10
7 | CNC(=O)c1cnc(-c2ccc3cc(C#N)cnn23)cc1N[C@H]1CC[C@H](C(=O)NC)C1 [Example 467, 6-(3-cyanopyrrolo[1,2-b]pyridazin-7-yl)-N-methyl-4-(((1S,3S)-3-(methylcarbamoyl)cyclo-pentyl)amino)nicotinamide] | 6.78 | 8.40
8 | CNC(=O)c1cnc(-c2ccc3cc(C#N)cnn23)cc1NC12CCC(C(=O)NC)(CC1)C2 [Example 468, 6-(3-cyanopyrrolo[1,2-b]pyridazin-7-yl)-N-methyl-4-((4-(methylcarbamoyl)bicyclo[2.2.1]heptan-1-yl)amino)nicotinamide] | 6.95 | 9.00
9 | CNC(=O)c1cnc(-c2ccc3cc(C#N)cnn23)cc1N[C@@H]1CC[C@H](C(=O)NC)C1 [Example 469, 6-(3-cyanopyrrolo[1,2-b]pyridazin-7-yl)-N-methyl-4-(((1R,3S)-3-(methylcarbamoyl)cyclo-pentyl)amino)nicotinamide] | 5.96 | 7.39
10 | CNC(=O)c1cnc(-c2ccc3cc(C#N)cnn23)cc1N[C@H]1CCC[C@@H](C(=O)NC)C1 [Example 470, 6-(3-cyanopyrrolo[1,2-b]pyridazin-7-yl)-N-methyl-4-(((1S,3R)-3-(methyl-carbamoyl)cyclohexyl)amino)nicotinamide] | 6.36 | 7.60
11 | CNC(=O)c1cnc(-c2ccc3cc(C#N)cnn23)cc1N[C@H]1C[C@@H](C(=O)NC)C1 [Example 471, 6-(3-cyanopyrrolo[1,2-b]pyridazin-7-yl)-N-methyl-4-(((1s,3s)-3-(methylcarbamoyl)cyclobutyl)amino) nicotinamide] | 7.13 | 8.05
12 | CNC(=O)c1cnc(-c2ccc3cc(C#N)cnn23)cc1N[C@H]1C[C@H](C(=O)NC)C1 [Example 472, 6-(3-cyanopyrrolo[1,2-b]pyridazin-7-yl)-N-methyl-4-(((1r,3r)-3-(methylcarbamoyl)cyclobutyl)amino) nicotinamide] | 5.27 | 7.37
13 | CNC(=O)c1cnc(-c2ccc3cc(C#N)cnn23)cc1NC12CCC(NC(C)=O)(CC1)C2 [Example 473, 4-((4-acetamido-bicyclo[2.2.1]heptan-1-yl)amino)-6-(3-cyano-pyrrolo[1,2-b]pyridazin-7-yl)-N-methylnicotinamide] | 7.48 | 9.00
14 | N#CCNC(=O)c1cnc(-c2ccc3cc(C#N)cnn23)cc1NC12CCC(C(=O)N3CC(F)(F)C3)(CC1)CC2 [Example 474, N-(cyanomethyl)-6-(3-cyanopyrrolo[1,2-b]pyridazin-7-yl)-4-((4-(3,3-difluoroazetidine-1-carbonyl)bicyclo[2.2.2]octan-1-yl)amino)nicotinamide] | 7.64 | > 9.00
15 | CNC(=O)C12CCC(Nc3cc(-c4ccc5cc(C#N)cnn45)ncc3C(=O)NCC#N)(CC1)CC2 [Example 475, N-(cyanomethyl)-6-(3-cyanopyrrolo[1,2-b]pyridazin-7-yl)-4-((4-(methylcarbamoyl)bicyclo[2.2.2]octan-1-yl)amino)nicotinamide] | 7.80 | > 9.00
16 | CC(=O)NC12CCC(Nc3cc(-c4ccc5cc(C#N)cnn45)ncc3C(=O)NCC#N)(CC1)CC2 [Example 476, 4-((4-acetamido-bicyclo[2.2.2]octan-1-yl)amino)-N-(cyano-methyl)-6-(3-cyano-pyrrolo[1,2-b]pyridazin-7-yl)nicotinamide] | 7.57 | > 9.00
17 | CC(=O)NC12CC(Nc3cc(-c4ccc5cc(C#N)cnn45)ncc3C(=O)NC3CCC(C(=O)N4CCOCC4)CC3)(C1)C2 (stereo not drawn) [Example 477, 4-((3-acetamido-bicyclo[1.1.1]pentan-1-yl)amino)-6-(3-cyano-pyrrolo[1,2-b]pyridazin-7-yl)-N-((1r,4r)-4-(morpholine-4-carbonyl)cyclohexyl) nicotinamide] | 7.01 | 9.00
18 | CC(=O)NC12CC(Nc3cc(-c4ccc5cc(C#N)cnn45)ncc3C(=O)N[C@H]3CC[C@H](C(=O)N4CC(F)(F)C4)CC3)(C1)C2 [Example 478, 4-((3-acetamido-bicyclo[1.1.1]pentan-1-yl)amino)-6-(3-cyano-pyrrolo[1,2-b]pyridazin-7-yl)-N-((1r,4r)-4-(3,3-difluoroazetidine-1-carbonyl)cyclohexyl) nicotinamide] | 7.14 | 9.00
19 | CNC(=O)[C@H]1CC[C@H](NC(=O)c2cnc(-c3ccc4cc(C#N)cnn34)cc2NC23CC(NC(C)=O)(C2)C3)CC1 [Example 479, 4-((3-acetamidobicyclo[1.1.1]pentan-1-yl)amino)-6-(3-cyanopyrrolo[1,2-b]pyridazin-7-yl)-N-((1r,4r)-4-(methylcarbamoyl)cyclohexyl)nicotinamide] | 7.15 | > 9.00
20 | CNC(=O)c1cnc(-c2ccc3cc(C#N)cnn23)cc1NC12CC(NC(=O)C3CC3)(C1)C2 [Example 480, 6-(3-cyanopyrrolo[1,2-b]pyridazin-7-yl)-4-((3-(cyclopropanecarboxamido)bicyclo[1.1.1]pentan-1-yl)amino)-N-methylnicotin-amide] | 7.04 | 8.70
21 | CNC(=O)c1cnc(-c2ccc3cc(C#N)cnn23)cc1NC12CCC(C(=O)NC3CC3)(CC1)CC2 [Example 481, 6-(3-cyanopyrrolo[1,2-b]pyridazin-7-yl)-4-((4-(cyclopropylcarbamoyl)bicyclo[2.2.2]octan-1-yl)amino)-N-methylnicotinamide] | 7.20 | 8.70
